Source: ChEMBL document CHEMBL2021851, “Synthesis and SAR studies of imidazo-[1,2-a]-pyrazine Aurora kinase inhibitors with improved off-target kinase selectivity” (Bioorg Med Chem Lett, 2012)

Legend:
Aurora kinase A = biological target: T1, Aurora kinase A (Homo sapiens, UniProt O14965); test: Inhibition of aurora A kinase using 5TAMRA-GRTGRRNSICOOH as substrate by fluorescent assay
T1 sequence (O14965 whole entry): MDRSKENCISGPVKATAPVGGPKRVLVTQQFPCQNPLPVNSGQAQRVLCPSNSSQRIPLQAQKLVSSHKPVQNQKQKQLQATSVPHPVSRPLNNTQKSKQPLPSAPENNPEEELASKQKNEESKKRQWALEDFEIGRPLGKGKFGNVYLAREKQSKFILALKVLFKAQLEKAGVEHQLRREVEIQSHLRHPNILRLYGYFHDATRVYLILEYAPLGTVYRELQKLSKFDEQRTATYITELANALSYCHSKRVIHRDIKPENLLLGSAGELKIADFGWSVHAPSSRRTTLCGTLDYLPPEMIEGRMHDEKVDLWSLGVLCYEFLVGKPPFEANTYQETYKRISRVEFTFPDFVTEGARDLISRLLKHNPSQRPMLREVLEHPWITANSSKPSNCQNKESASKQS

Aurora kinase B [1] = biological target: T2, Aurora kinase B (Homo sapiens, UniProt Q96GD4); test: Inhibition of aurora B kinase using 5TAMRA-GRTGRRNSICOOH as substrate by fluorescent assay
Aurora kinase B [2] = biological target: T2, Aurora kinase B; test: Inhibition of aurora B kinase in human HCT116 cells assessed as inhibition of histone H3 phosphorylation incubated for 1 hr by Hoechst 33342 staining based microscopic analysis; type: cell-based, HCT-116

T2 sequence (Q96GD4 whole entry): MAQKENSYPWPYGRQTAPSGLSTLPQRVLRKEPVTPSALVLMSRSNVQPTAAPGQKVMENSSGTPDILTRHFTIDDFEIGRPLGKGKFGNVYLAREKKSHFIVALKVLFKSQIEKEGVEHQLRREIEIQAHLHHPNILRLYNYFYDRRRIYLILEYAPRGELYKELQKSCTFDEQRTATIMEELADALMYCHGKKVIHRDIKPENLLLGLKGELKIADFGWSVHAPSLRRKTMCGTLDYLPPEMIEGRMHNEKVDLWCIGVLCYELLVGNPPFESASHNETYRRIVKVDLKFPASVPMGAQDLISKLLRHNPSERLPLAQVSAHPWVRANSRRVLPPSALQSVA

Structure (SMILES)	IC50 (Aurora kinase A) [µM]	IC50 (Aurora kinase B [1]) [µM]	EC50 (Aurora kinase B [2]) [µM]
Cc1cn2c(-c3cnn(Cc4nc5ccccc5[nH]4)c3)cnc2c(Nc2cc(CN3CCCC(C)C3)ns2)n1 (stereo unspecified)	0.018	≤ 0.013	0.534
COc1ccc(CNC(=O)Cn2cc(-c3cnc4c(Nc5cc(CN6CCCC(C)C6)ns5)nc(C)cn34)cn2)cc1 (stereo unspecified)	1.93	0.161	–
Cc1cn2c(-c3cnn(CC(=O)NCc4cc(F)cc(F)c4)c3)cnc2c(Nc2cc(CN3CCCCC3)ns2)n1	0.022	≤ 0.013	0.389
Cc1cn2c(-c3cnn(CC(=O)Nc4nccs4)c3)cnc2c(Nc2cc(CN3CCCC(C)C3)ns2)n1 (stereo unspecified)	0.1	≤ 0.013	> 1
CNC(=O)Cn1cc(-c2cnc3c(Nc4cc(CN5CCCCC5)ns4)nc(C)cn23)cn1	> 3	0.193	–
Cc1cn2c(-c3cnn(CC(=O)NCc4cccnc4)c3)cnc2c(Nc2cc(CN3CCCC(C)C3)ns2)n1 (stereo unspecified)	0.434	0.439	–
Cc1cn2c(-c3cnn(CC(=O)O)c3)cnc2c(Nc2cc(CN3CCCC(C)C3)ns2)n1 (stereo unspecified)	0.836	0.146	–
Cc1cn2c(-c3cnn(CC(=O)Nc4cccc(F)n4)c3)cnc2c(Nc2cc(CN3CCCC(C)C3)ns2)n1 (stereo unspecified)	0.102	0.028	0.164
Cc1cn2c(-c3cnn(CC(=O)NCc4ccccc4F)c3)cnc2c(Nc2cc(CN3CCCCC3)ns2)n1	0.044	≤ 0.013	0.469
Cc1cn2c(-c3cnn(CC(=O)N(C)Cc4ccccc4)c3)cnc2c(Nc2cc(CN3CCCC(C)C3)ns2)n1 (stereo unspecified)	1.63	0.261	–
Cc1cn2c(-c3cnn(Cc4nc(-c5ccccc5)no4)c3)cnc2c(Nc2cc(CN3CCCCC3)ns2)n1	≤ 0.004	≤ 0.013	> 1
Cc1cn2c(-c3cnn(CC(=O)NCCC(C)C)c3)cnc2c(Nc2cc(CN3CCCCC3)ns2)n1	1.8	0.044	> 1
Cc1cn2c(-c3cnn(CC(N)=O)c3)cnc2c(Nc2cc(CN3CCCCC3)ns2)n1	1.57	0.028	> 1
Cc1cn2c(-c3cnn(CC(=O)NCc4ncco4)c3)cnc2c(Nc2cc(CN3CCCC(C)C3)ns2)n1 (stereo unspecified)	0.168	0.178	–
Cc1cn2c(-c3cnn(CC(=O)Nc4ccncc4O)c3)cnc2c(Nc2cc(CN3CCCC(C)C3)ns2)n1 (stereo unspecified)	0.239	0.282	–
Cc1cn2c(-c3cnn(CC(=O)N(C)C)c3)cnc2c(Nc2cc(CN3CCCCC3)ns2)n1	> 3	> 3	–
Cc1cn2c(-c3cnn(CC(=O)NCc4cccc(F)c4)c3)cnc2c(Nc2cc(CN3CCCCC3)ns2)n1	0.03	≤ 0.013	0.234
Cc1cn2c(-c3cnn(CC(=O)NCc4ccc(C(F)(F)F)cc4)c3)cnc2c(Nc2cc(CN3CCCC(C)C3)ns2)n1 (stereo unspecified)	> 3	0.175	–
Cc1cn2c(-c3cnn(CC(=O)Nc4cccnc4)c3)cnc2c(Nc2cc(CN3CCCC(C)C3)ns2)n1 (stereo unspecified)	0.186	0.118	–
Cc1cn2c(-c3cnn(CC(=O)Nc4ccccc4)c3)cnc2c(Nc2cc(CN3CCCC(C)C3)ns2)n1 (stereo unspecified)	0.034	0.051	0.327
Cc1cn2c(-c3cnn(CC(=O)NCc4ccc(F)cc4)c3)cnc2c(Nc2cc(CN3CCCCC3)ns2)n1	0.04	≤ 0.013	0.416
Cc1cn2c(-c3cnn(CC(=O)NCc4cccc(F)c4F)c3)cnc2c(Nc2cc(CN3CCCCC3)ns2)n1	0.045	≤ 0.013	0.87
